Experimental data as given in paper PMC3290904 (Biochemistry, 2012).

Columns and labels:
[1] = biological target: AdiC (arginine-agmatine antiporter) (Salmonella enterica, UniProt P60066); test: isothermal titration calorimetry; format: binding
[2] = biological target: T1, AdiC (S26C mutant) (Salmonella enterica, UniProt P60066, S26C/C80S/C97S/C129S/C238S/C281S/C286S/C369S/C398S); test: isothermal titration calorimetry; format: binding
T1 sequence (P60066 1-445 S26C/C80S/C97S/C129S/C238S/C281S/C286S/C369S/C398S): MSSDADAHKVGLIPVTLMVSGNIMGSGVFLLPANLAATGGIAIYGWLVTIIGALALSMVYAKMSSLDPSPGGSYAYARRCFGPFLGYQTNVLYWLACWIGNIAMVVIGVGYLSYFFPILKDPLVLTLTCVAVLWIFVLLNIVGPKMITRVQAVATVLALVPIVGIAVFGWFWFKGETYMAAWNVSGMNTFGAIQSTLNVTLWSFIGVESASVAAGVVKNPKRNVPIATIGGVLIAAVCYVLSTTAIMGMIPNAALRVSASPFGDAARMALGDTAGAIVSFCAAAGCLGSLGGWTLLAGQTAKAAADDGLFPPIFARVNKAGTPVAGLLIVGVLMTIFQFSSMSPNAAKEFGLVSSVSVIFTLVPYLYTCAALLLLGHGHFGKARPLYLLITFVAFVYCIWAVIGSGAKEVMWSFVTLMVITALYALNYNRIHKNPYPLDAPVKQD

[3] = biological target: AdiC (S26C mutant) (Salmonella enterica, UniProt P60066, C129S/C238S/C281S/C286S/C369S/C398S/C80S/C97S/S26C); test: competitive inhibition of […]-arginine uptake in oriented proteoliposomes; format: biochemical

Compound	Kd [1] [µM]	Kd [2] [µM]	Ki [3] [mM]
N=C(N)NCCC[C@H](N)C(=O)O [arginine]	32	22 ± 2	
N=C(N)NCCC[C@H](N)C(N)=O [argininamide]			1.1
